Test results from US8128967B2, “Polyphenol coxib combinations and methods” (Mitsui Norin Co., Ltd., priority 2005, dated 2012).
Several values for one entry are separate records, joined by “and”; a condition that tells them apart may be missing. Equal values may be shown once.

Tests used:
[1] = test system: cisplatin-induced lung tumors; assay: Experiment 2: celecoxib with EGCG or polyphenon E on cisplatin-induced lung tumor incidence and multiplicity; assay type: in vivo, female A/J mice; details: 0.1% EGCG or 0.17% polyphenon E in drinking water where combined; for INCIDENCE: killed at 26 weeks, CDDP control 95%
[2] = Experiment 2: cisplatin-induced weight loss; details: low-dose celecoxib; p<0.05
Procedure: In this study, female A/J mice (4 weeks old) were divided into seven groups: group 1, no treatment; group 2, low-dose celecoxib (150 mg/kg diet); group 3, high-dose celecoxib (1500 mg/kg diet); group 4, 0.1% EGCG+low-dose celecoxib treatment (150 mg/kg diet); group 5, 0.1% EGCG+high-dose celecoxib (1500 mg/kg diet); group 6, 0.17% polyphenon E+low-dose celecoxib (150 mg/kg diet); group 7, 0.17% polyphenon E+high-dose celecoxib (1500 mg/kg diet). All mice were treated with cisplatin (1.62 mg/kg of body weight, i.p.) once a week for 10 weeks from 7 to 16 weeks of age. Mice in groups 2, 3, 4, 5, 6, and 7 were exclusively fed experimental diet prepared by mixing celecoxib. EGCG and polyphenon E were provided in drinking water. Seven groups of mice were killed at 26 weeks after treatment.

[3] = test system: cisplatin-induced lung tumors; assay: Experiment 1: Celecoxib with EGCg or Polyphenon E on cisplatin-induced lung tumor incidence and multiplicity; assay type: in vivo, A/J mice; details: for INCIDENCE: CDDP control 0.9; for MULTIPLICITY: CDDP control 2.2
Procedure: Similarly, CDDP+Cox (number)+Polyphenon E refers to animals treated with Cisplatin, Polyphenon E, and Celecoxib. Each group of animals had 10 mice.
As control, A/J mice were treated with CDDP using standard protocols well known in the art and as further described below.
Treatment with EGCg alone (see below) was performed in the animals of group 2. […] Low-dose and high-dose effects of Celecoxib were tested in groups 3 and 4 in which the COX-2 inhibitor was mixed with the diet at a concentration of either 150 ppm or 1,500 ppm as indicated by the numbers in parentheses (see below).
The effect of EGCg in combination with high- and low-dose COX-2 inhibitor was tested in groups 5 and 6 (see below). […] For these experiments, EGCg was dissolved in drinking water at 0.1% (wt/vol) concentration.
The effect of Polyphenon E in combination with high- and low-dose COX-2 inhibitor was tested in groups 7 and 8 (see below). […] For these experiments, Polyphenon E was dissolved in drinking water at 0.17% concentration.

[4] = test system: cisplatin-induced lung tumors; details: administered as individual compounds; Carcinogenesis 21(5):915, 2000; Proc AACR 44 #4920; cited from earlier work
[5] = celecoxib 150 ppm in diet (low dose), EGCg 0.1% or Polyphenon E 0.17% in drinking water where combined
[6] = celecoxib 1,500 ppm in diet (high dose), EGCg 0.1% or Polyphenon E 0.17% in drinking water where combined
[7] = EGCg 0.1% (wt/vol) in drinking water, no celecoxib

Compound | MULTIPLICITY (number of tumors/mouse, mean±SD in text) ([1]; high-dose celecoxib 1500 mg/kg diet, CDDP control 2.2) | MULTIPLICITY (number of tumors/mouse, mean±SD in text) ([1]; high-dose celecoxib 1500 mg/kg diet, CDDP control 2.2, listed as Celecoxib) | INCIDENCE ([1]; high-dose celecoxib 1500 mg/kg diet) | INCIDENCE ([1]; high-dose celecoxib 1500 mg/kg diet, listed as Celecoxib) | MULTIPLICITY (number of tumors/mouse, mean±SD in text) ([1]; low-dose celecoxib 150 mg/kg diet, CDDP control 2.2) | MULTIPLICITY (number of tumors/mouse, mean±SD in text) ([1]; low-dose celecoxib 150 mg/kg diet, CDDP control 2.2, listed as Celecoxib) | INCIDENCE ([1]; low-dose celecoxib 150 mg/kg diet) | INCIDENCE ([1]; low-dose celecoxib 150 mg/kg diet, listed as Celecoxib) | cisplatin-induced weight loss (in words) [2] | INCIDENCE [3, 5] | MULTIPLICITY [3, 5] | INCIDENCE [3, 6] | MULTIPLICITY [3, 6] | inhibition of cisplatin-induced lung tumors (in words) [4] | INCIDENCE [3, 7] | MULTIPLICITY [3, 7] | effect on tumor incidence (in words) ([3]; EGCg alone) | reduction of tumor multiplicity versus control ([3]; EGCg alone) | mice that developed tumors (tumor incidence) ([3]; EGCg alone, control 90%)
Cc1ccc(-c2cc(C(F)(F)F)nn2-c2ccc(S(N)(=O)=O)cc2)cc1 [Cox, celecoxib] | 1.7 tumors/mouse | 1.7±1.2 tumors/mouse | 85.7% | 85.7% | 2.1 tumors/mouse | 2.1±1.3 tumors/mouse | 95% | 95% | significantly prevented | 0.9 | 2.1 | 0.91 | 1.91 |  |  |  |  |  | 
(−)-epigallocatechin gallate [EGCg] |  |  |  |  |  |  |  |  |  |  |  |  |  | partially inhibits | 0.8 | 1.2 | could not significantly reduce tumor incidence | 45% and ~50% | 80%
